One substance from US11331375B2, “Compositions and methods for regulating leukocyte adhesion” (University of Virginia Patent Foundation, priority 2015, dated 2022) can be followed below.

Where only a bound is given, the exact number is not on record here.

Format in all cases: cell-based, human
In test [1] the test system is HUVEC. Kind of test: In vitro ATP release assay (luciferin:luciferase), HUVEC. The protocol: (§1) In vitro Human arterial and venous ECs were seeded in 24-well plates pre-coated with 0.2% gelatin and grown to confluency. On the day of experiment, the media was removed from each well and cells were carefully washed twice with warm serum free basal EC medium supplemented with 1% BSA. Cells were then incubated in 300 μL of fresh basal EC medium supplemented with 1% BSA for 30 minutes at 37° C. to allow degradation of extracellular ATP released due to mechanical stimulation during washes. Endogenous ecto-nucleotidases were inhibited by incubating EC monolayers with 300 μM ARL 67156 (Tocris) for 30 minutes at 37° C. Cells were then stimulated with recombinant human TNFα (R&D Systems). For dose response experiments, ECs were incubated with 0.1, 1, 5, 10, 50, or 100 ng/mL recombinant TNFα for 30 minutes at 37° C. For time-course experiments, ECs were stimulated with 10 ng/mL recombinant TNFα for different time points up to 1 hour. In experiments where pharmacological inhibitors were employed, ECs were incubated with antagonists in parallel with ARL 67156 for 30 minutes. To inhibit TNFR1, ECs were incubated with the peptide antagonist of the receptor WP9QY (10 μM; Anaspec). […] Cx hemichannels were inhibited with lanthanum (La^3+; 100 μM; Sigma) and Panx1 channels were blocked with carbenoxolone (CBX; 50 μM; Sigma) and the inhibitory peptide ^10panx1 (200 μM; Genscript). […] The role of caspase activation was assessed by inhibition with the pan-caspase blocker Q-VD-OPh (100 μM; Sigma). Following stimulation with TNFα or vehicle, 150 μL of the cell supernatant was collected and immediately placed into pre-chilled 1.5 mL Eppendorf tubes on ice. All samples were centrifuged at 10,000×g for 5 minutes and 50 μL of each sample was transferred to a white, opaque 96-well plate. Using a FluoStar Omega luminometer, 50 μL of luciferin:luciferase reagent (ATP bioluminescence assay kit HSII; Roche) was injected into each well and luminescence was recorded following a 5s orbital mix. ATP concentration in each sample was calculated from a standard curve for all experiments. Data are presented as a % change in ATP release from baseline (i.e. unstimulated cells) and expressed as mean±SEM (n=5 independent experiments with triplicate measurements).

For test [2], the system named is Panx1. Kind of test: Western blot of Panx1 phosphorylation at Y198 in venous ECs. The settings on record: HUVEC and HSaVECs; TNFα 10 ng/mL. The protocol: (§2) Following stimulation with TNFα (in vitro: 10 ng/mL; ex vivo: 50 ng/mL), confluent endothelial cell monolayers or isolated mesenteric venules were homogenized in ice cold Triton extraction buffer (50 mM Tris-HCL, 150 mM NaCl , 5 mM EDTA, 1% deoxycholate, 1% NP-40 and 1% Triton-X100 in phosphate buffered saline and pH adjusted to 7.4) containing protease and phosphatase inhibitors. Cell/Tissue lysates were incubated with rotation at 4° C. for 20 minutes to solubilize proteins, followed by centrifugation for 5 minutes at 13,000× g to pellet cell debris. Protein concentration was quantified using the BCA method. 15-20 μg of total protein was subjected to SDS gel electrophoresis using 4-12% Bis-Tris gels (Invitrogen) and transferred to nitrocellulose membranes for immunoblotting. Membranes were blocked for 1 hr at room temperature with LiCOR blocking solution, then incubated overnight at 4° C. with primary antibodies against pY416SFKs, (BD Biosciences; 1:1000) pY198Panx1 (Alpha Diagnostic Intl (ADI); 1:1000) and GAPDH (Sigma; 1:10,000) or an antibody against the intracellular loop of Panx1 (Panx1-IL) (ADI; 1:1000) (normalization controls). Membranes were then washed and incubated with LiCOR secondary antibodies (1:10,000) and visualized and quantitated using LiCOR Odyssey. To inhibit SFK activity, EC monolayers were incubated with the SFK inhibitor PP2 (Tocris; 10 μM). […] To show specificity for the phosphorylated form of SFKs and Panx1, cell lysates were incubated with alkaline phosphatase for 1 hour at 37° C. Western blot images have been cropped for presentation. Uncropped Western blots can be found in FIGS. 12-13. Data are expressed as mean±SEM (n=3 independent experiments).

Test [3] concerns Src Family Kinases (SFK). Kind of test: Western blot of SFK activation (pY416SFK) in venous ECs. The settings on record: HUVEC and HSaVEC; acute (5 minute) TNFα. Here is the method:
as §2
(Immunoblotting shows a protein as a band on a membrane.)

Test [4] has as its system HCoAEC. As to the kind of experiment: In vitro ATP release assay, HCoAEC. Here is the method: (§3) In vitro Human arterial and venous ECs were seeded in 24-well plates pre-coated with 0.2% gelatin and grown to confluency. On the day of experiment, the media was removed from each well and cells were carefully washed twice with warm serum free basal EC medium supplemented with 1% BSA. Cells were then incubated in 300 μL of fresh basal EC medium supplemented with 1% BSA for 30 minutes at 37° C. to allow degradation of extracellular ATP released due to mechanical stimulation during washes. Endogenous ecto-nucleotidases were inhibited by incubating EC monolayers with 300 μM ARL 67156 (Tocris) for 30 minutes at 37° C. Cells were then stimulated with recombinant human TNFα (R&D Systems). For dose response experiments, ECs were incubated with 0.1, 1, 5, 10, 50, or 100 ng/mL recombinant TNFα for 30 minutes at 37° C. […] The role of caspase activation was assessed by inhibition with the pan-caspase blocker Q-VD-OPh (100 μM; Sigma). […] Using a FluoStar Omega luminometer, 50 μL of luciferin:luciferase reagent (ATP bioluminescence assay kit HSII; Roche) was injected into each well and luminescence was recorded following a 5s orbital mix. ATP concentration in each sample was calculated from a standard curve for all experiments. Data are presented as a % change in ATP release from baseline (i.e. unstimulated cells) and expressed as mean±SEM (n=5 independent experiments with triplicate measurements).

Test [5] relates to HSaVEC. Kind of test: In vitro ATP release assay (luciferin:luciferase), HSaVEC. The settings on record: HSaVEC monolayers. Here is the method:
as §1

For test [6], the system named is THP-1 monocyte adhesion to HUVEC. Kind of test: Static adhesion assay, THP-1 monocytes on HUVEC. Particulars: HUVEC monolayers activated with TNFα for 30 minutes. Here is the method:
HUVECs were seeded on gelatin-coated glass coverslips in 6-well plates and grown to confluence. On the day of the experiment, cells were washed 2× with 1× PBS and incubated for 30 minutes in basal EGM supplemented with 1% BSA in the presence or absence of pharmacological inhibitors. During this incubation period, human THP-1 monocytes were loaded with Calcein-AM (Invitrogen; 5 μg/mL) for 30 minutes at 37° C. Cells were then pelleted by brief centrifugation and excess calcein was removed by washing THP-1 cells 3 times in 1× PBS. Next, HUVECs were stimulated with TNFα (10 ng/mL) for 30 minutes. Following EC activation, calcein-loaded THP-1 monocytes were added to EC monolayers and incubated for 20 minutes at 37° C. to allow THP-1 to contact ECs. Monolayers were then washed 3× with 1× PBS and fixed in ice cold 4% PFA. Following fixation, coverslips were removed from the 6-well plates and mounted on glass microscope slides with Prolong Gold anti-fade mountant with DAPI (Life Technologies). Fluorescent micrographs were obtained at 10×magnification and the number of adherent THP-1 monocytes/ECs was quantified in 5 randomized regions/slide. Data are expressed as mean±SEM (n=3 independent experiments).

Test [7] deals with HAoEC. Kind of test: In vitro ATP release assay, HAoEC. Here is the method: as §3

TNFα: the “TNFα dose with significant ATP release response” value in test [1] (EC ATP release, range tested 0.1-100 ng/mL) is listed as no less than 10 ng/mL. Moreover, the “ATP release on cytokine stimulation” value in test [1] (HUVEC monolayers) is reported as “significant increase”; in test [4], “failed to release ATP”; in test [5], “significant increase”; in test [7] it was “failed to release ATP”. In addition, the “TNFα concentration giving maximal accumulation of extracellular ATP” value in test [1] (cultured venous ECs) was found to be 10 ng/mL. Also, the “time to maximal accumulation of extracellular ATP” value in test [1] (cultured venous ECs, 10 ng/mL TNFα) is on record as “approximately 10 minutes”. In addition, the “Panx1 phosphorylation at Y198” value in test [2] is reported as “increased phosphorylation at Y198”. Further, the “Y416 phosphorylation of SFK” value in test [3] is reported as “significant increase”. Besides, in test [6], the “increase of THP-1 monocyte adhesion” value is recorded as roughly 4 fold.
